Patent publication US20240239801A1, “PYRIMIDO[5,4,D]PYRIMIDINE COMPOUNDS, COMPOSITIONS COMPRISING THEM AND USES THEREOF” (Université de Montréal, priority 2021, published 2024)

Assays:
HCT116 pERK = test: Phospho-ERK inhibition, AlphaLISA SureFire Ultra p-ERK 1/2; assay type: cell-based, human; details: FIG. 1; RAS-mutant HCT116 cells
How it was run: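 IC50 derived by four-parameter fitting of % inhibition, with DMSO as 0% and 1 μM trametinib subtracted as background. Signal is AlphaLISA p-ERK1/2 (Thr202/Tyr204) in lysates of overnight-seeded cells (RPMI-1640, 5% FBS) treated 1 h with ten concentrations from 30 or 10 μM to 0.33 nM, 0.5% DMSO.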

[1] = system: RAS-mutant HCT-116 cells pERK/pMEK; test: Immunoblot analysis of pERK and pMEK; assay type: cell-based, human; details: FIG. 2, 1 h treatment
Method: For immunoblotting analysis, 500,000 HCT-116 cells were plated in 1 mL of complete RPMI-1640 growth medium in 24-well flat-bottomed transparent dishes (Costar). Cells were maintained overnight at 37° C. under 5% CO2 before treatment with compounds' dilution series for one hour. Cells were then washed once in PBS and lized in 250 μL of Igepal Lysis Buffer (50 mM Tris-HCl pH 7.5, 150 mM NaCl, 1% Igepal-CA630, 1 mM EDTA, 10% Glycerol) supplemented with Leupeptin, Aprotinin, PMSF, phosphatase inhibitor cocktail (Sigma) and Na3VO4 at 4° C. for 15 minutes with gentle rocking. Cell extracts were then cleared by centrifugation at 20,000 g at 4° C. for 10 minutes. Cleared lysates were then transferred on ice in fresh tubes and then boiled in sample loading buffer (100 mM Tris-HCl pH 6.8, 4% SDS, 0.2% bromophenol blue, 20% glycerol, 200 mM β-mercaptoethanol) for 5 minutes prior to fractionation by SDS-PAGE and transfer to nitrocellulose membranes (PALL). […]

CCCS(=O)(=O)Nc1ccc(F)c(C(=O)c2c[nH]c3ncc(Cl)cc23)c1F [PLX4720, reference compound]
YMIN of pERK IC50 dose response curve (HCT116 pERK): ~−600% | paradoxical induction of pERK or pMEK signaling (immunoblot) [1]: induces the pathway
